Marks after values point to notes of the source that are not given here.
How the values were obtained:
Type in all cases: cell-based
[1] = tested on: NFATc1 protein in RAW264.7 cells; experiment: Western blot, expression of NFATc1 induced by RANKL; conditions: 5 μM, 7.5 μM and 10 μM, RANKL 24 hours, FIG. 13
Experimental: The proteins were collected by scraping and were centrifuged (13,000 rpm, 4° C., 30 minutes). The supernatant was stored in an eppendorf in −80° C. • c) Concentrations of the proteins were examined by Bio-Red DC Protein Assay. After knowing the concentrations, the proteins were diluted to specific concentrations by adding ddH2O. One forth volume of the diluted proteins of sample buffer was added into the diluted proteins and was put in boiled water for 5 min and then was chilled on ice for 5 minutes. After short time centrifugation, the diluted proteins could be injected into wells of a gel. The gel was run at 100 V for 10 minutes until the proteins were driven to the intersection between a loading gel and a running gel. Then, the voltage was swopped to 200 V for 40 minutes. • d) A PVDF membrane was immersed in Methanol for 2 minutes. After two washes in ddH2O, the membrane was immersed in transfer buffer for 15 minutes. A SDS-PAGE was put on the membrane, and wet paper was flanked them. The proteins were transferred to the PVDF membrane using a semi-dry transfer at 20 V for 30 minutes. • e) The band of the PVDF membrane was trimmed and was added by suitable amount of blocking buffer (5% skim milk in washing buffer) and then was shaken for 1 hour in room temperature to block non specific bindings. Then, the band was covered by a diluted 1° antibody overnight in 4° C. […]

[2] = tested on: Fra-2 mRNA in RAW264.7 cells; experiment: RT-PCR, RANKL-induced mRNA expression of Fra-2; conditions: for RANKL-induced mRNA expression level of Fra-2: RAW264.7 cells, 24 hours, CTL 100%, mean ± SEM
Description: (§1) The culture medium was discarded. […] [table] f) Running • A.

[3] = tested on: JNK phosphorylation in RAW264.7 cells; experiment: Western blot, phosphorylation of JNK induced by RANKL; conditions: 7.5 μM and 10 μM, RANKL 15 minutes, FIG. 10
Experimental: MAP kinases including ERK, JNK and p38 are stimulated by RANKL to be phosphorylized and further influence the down-stream key transcription factors which induce the differentiation of osteoclast-like cells such as c-Fos, NFATc1, etc. Before estimating the drug effect, 10 ng/ml RANKL are used to induce the phosphorylation of ERK, JNK and p38 at different time points. […] It is shown that KMUP-1 can reduce the activation of MAP kinases induced by RANKL. […] The proteins were collected by scraping and were centrifuged (13,000 rpm, 4° C., 30 minutes). The supernatant was stored in an eppendorf in −80° C. • c) Concentrations of the proteins were examined by Bio-Red DC Protein Assay. After knowing the concentrations, the proteins were diluted to specific concentrations by adding ddH2O. One forth volume of the diluted proteins of sample buffer was added into the diluted proteins and was put in boiled water for 5 min and then was chilled on ice for 5 minutes. After short time centrifugation, the diluted proteins could be injected into wells of a gel. The gel was run at 100 V for 10 minutes until the proteins were driven to the intersection between a loading gel and a running gel. Then, the voltage was swopped to 200 V for 40 minutes. • d) A PVDF membrane was immersed in Methanol for 2 minutes. After two washes in ddH2O, the membrane was immersed in transfer buffer for 15 minutes. […]

[4] = tested on: MMP-9 mRNA in RAW264.7 cells; experiment: RT-PCR, RANKL-induced mRNA expression of MMP-9; conditions: for RANKL-induced mRNA expression level of MMP-9: RAW264.7 cells, 24 hours, CTL 100%, mean ± SEM
Description: as §1

[5] = tested on: TNF-α secretion by RAW264.7 cells; experiment: ELISA, RANKL-induced secretion of TNF-α; conditions: RAW264.7, ELISA, FIG. 6
Experimental: Under RANKL stimulation, mononuclear RAW264.7 cells can secrete pro-inflammatory cytokines such as TNF-α, IL-1, IL-6, etc. ELISA is used to measure that KMUP-1 influences RANKL to induce the secretion of pro-inflammatory cytokines. […] 10^5 cells were plated per well in 24-well plates. […] After 24 hours reaction, the reaction fluid was centrifuged (13,000 rpm, 4° C., 20 minutes), and then the supernatant was tasted by ELISA kit (R&D system and eBioscience™) to detect the amount of TNF-α, IL-1β, IL-6, and IL-10. The experimental process is followed with the instructions of the kit.

[6] = 10 ng/ml RANKL, summary of Table 1

Structure (SMILES): Cn1c(=O)c2c(ncn2CCN2CCN(c3ccccc3Cl)CC2)n(C)c1=O [KMUP-1, 7-[2-[4-(2-Chlorophenyl)piperazin-1-yl]ethyl] theophylline]
- expression of NFATc1 induced by RANKL [1]: can efficiently inhibit the expression of NFATc1 induced by RANKL
- effect on mRNA expression of Fra-2 induced by RANKL (in words) [2, 6]: not obviously inhibits
- RANKL-induced mRNA expression level of Fra-2 ([2]; RANKL 10 ng/ml + KMUP-1 1 μM): 428.3 ± 38.5%
- RANKL-induced mRNA expression level of Fra-2 ([2]; RANKL 10 ng/ml + KMUP-1 2.5 μM): 490.5 ± 42.3%
- RANKL-induced mRNA expression level of Fra-2 ([2]; RANKL 10 ng/ml + KMUP-1 5 μM): 488.2 ± 57.6% ^
- RANKL-induced mRNA expression level of Fra-2 ([2]; RANKL 10 ng/ml + KMUP-1 7.5 μM): 474.5 ± 52.1% ^
- RANKL-induced mRNA expression level of Fra-2 ([2]; RANKL 10 ng/ml + KMUP-1 10 μM): 496.6 ± 44.1% ^
- phosphorylation of JNK induced by RANKL [3]: can efficiently inhibit the phosphorylation of ERK, JNK and p38 induced by RANKL
- effect on mRNA expression of MMP-9 induced by RANKL (in words) [4, 6]: inhibits the mRNA expression
- RANKL-induced mRNA expression level of MMP-9 ([4]; RANKL 10 ng/ml + KMUP-1 1 μM): 1732.4 ± 168.9%
- RANKL-induced mRNA expression level of MMP-9 ([4]; RANKL 10 ng/ml + KMUP-1 2.5 μM): 1619.9 ± 179.8%
- RANKL-induced mRNA expression level of MMP-9 ([4]; RANKL 10 ng/ml + KMUP-1 5 μM): 1570.9 ± 159.3% ^b
- RANKL-induced mRNA expression level of MMP-9 ([4]; RANKL 10 ng/ml + KMUP-1 7.5 μM): 1439.8 ± 188.8% ^b
- RANKL-induced mRNA expression level of MMP-9 ([4]; RANKL 10 ng/ml + KMUP-1 10 μM): 1372.0 ± 175.6% ^b
- RANKL-induced secretion of TNF-α [5]: presents a dose dependent inhibition phenomenon
